Measured values from US20260242390A1, “TOTAL SYNTHESES OF PORTIMINE A AND ANALOGUES THEREOF AS SMALL MOLECULE MODULATORS OF NMD3” (priority 2023, published 2026).
Entries after “also recorded” stand apart in the source; their conditions may differ. Like-named read-outs stand apart in the source and are kept apart here.

Tested on: Jurkat cells
Assay: Cell viability / toxicity in Jurkat cells
Type: cell-based, human
Settings: for IC50: Homo sapiens, read-out: IC50 to Jurkat cells; for cell toxicity in leukemia (Jurkat) cancer cell line: 36-hour treatment; for toxicity to Jurkat cells: pM-nM concentration range (0.23 pM to 1 uM), 12 hr
Source text: FIG. 1. Portimine A is non-toxic to primary human PBMCs. Portimine A and its functional analogs show stereo-selective acute toxicity in cancer cells. […] (B) Structure of portimine related analogs: phenyl-portimine A (Ph-PA, 36) and epi-portimine A (ePA, 38). Structure of fully functionalized portimine A-based epimeric probe pair: portimine A-diazirine-alkyne (PA-DA, 35-2) and epi-portimine A-diazirine-alkyne (ePA-DA, 35-1). (C) Cell viability analysis of portimine A and analogs. […] All presented data as mean of biological replicated experiments (n=3). […]
Structurally related negative control ePA and PB are non-toxic in all cell types in the current concentrate range. PBMCs (25k per well), Jurkat (10k per well). […]
• 1) Portimine A and its functional analogs show stereo-selective acute toxicity in cancer cells (FIG. 1). […] (B) Structure of portimine related analogs: phenyl-portimine A (Ph-PA, 36) and epi-portimine A (ePA, 38). Structure of fully functionalized portimine A-based epimeric probe pair: portimine A-diazirine-alkyne (PA-DA, 35-2) and epi-portimine A-diazirine-alkyne (ePA-DA, 35-1). (C) Cell viability analysis of portimine A and analogs. […] All presented data as mean of biological replicated experiments (n=3). […] Structurally related negative control ePA and PB are non-toxic in all cell types in the current concentrate range. PBMCs (25k per well), Jurkat (10k per well). […] Cell cycle analysis in Jurkat cells (FIG. 2). […] (A) PA and Ph-PA show less toxic to healthy PBMCs compared to Jurkat cells. […] (B) Immunoblot of caspase-3 in Jurkat and PBMCs with indicated conditions. […] (A) Pharmacokinetic studies of mouse intraperitoneal (i.p.) and oral (p.o.) administration for portimine (n=3). […] Impact of PA [0.3 or 1 mg/kg intraperitoneally] on MC38 tumor growth in WT mice (n=6). (C) Kaplan-Myer survival curve of WT MC38 tumor-bearing mice (n=6) after treatment with PA as described in (D). Mice were euthanized when tumor area exceeded 2000 mm^3. Statistical analysis was performed using ANOVA analysis followed by multiple comparisons test, * p≤0.05. Treatment condition: Jurkat (60 M per condition); PA-DA/ePA-DA concentration: 0.5 uM, PA or ePA: 5 uM; Incubate with probe with or without competitors (PA, ePA) for 30 min; UV irradiated for 20 min. (0.5 uM PA-DA add a no-UV condition), Standard pulldown & biotin-enrichment and western blot analysis (Elute condition: 2× sample buffer+500 uM biotin, boil for 20 mins); Primary antibody NMD3 (ProteinTech, 1:150), Actin (BioRad, 1:10000). […] Chemical proteomic profiling with PA-DA in Jurkat cells (A, B, C, G) and HCC1806 cells (D, E, F, H) show NMD3 is the primary target candidate of portimine A. […] (I, J) Confirmation of PA-DA engagement of NMD3 in Jurkat and HCC1806 cells. […] Treatment condition: Jurkat (5M per well). Portimine A concentration: 2 nM-1000 nM; In total treat cell for 12 hours. […] Protein degradation of p53, Mcl1, Bid, Bim, Noxa can be rescued by MG132 or Epoxomicin. (B) NMD3 mRNA increased after PA treatment, but not ePA control compound. […] (A) Immunoblot showing reduced NMD3 levels in shNMD3 Jurkat and HeLa cells. […] Data represents mean±SD of biologically replicated experiments (n=3). […] Cell lysates were fractionated by sucrose gradient (5-50%) and each fraction were analyzed by western blot. eIF6 levels increase in 60S subunit fraction and decrease in ribosome-free fractions after PA treatment. RPS6, a 40S and polysome subunits marker, is decreased in polysome fractions after PA treatment. Results are representative of three independent experiments. […] Relative protein levels in each fraction were normalized to the peak fraction of the indicated protein from the DMSO cells and plotted. Data represents mean±SD of biologically replicated experiments (n=3). Statistical analysis was performed using multiple unpaired Student t-test. * p≤0.05; ** p≤0.01; *** p≤0.005; **** p≤0.0001. […]

Compound | IC50 (Jurkat, 12 h) | cell toxicity in leukemia (Jurkat) cancer cell line | toxicity to Jurkat cells | IC50 (after 12 hr, Jurkat 10k per well, 0.23 pM to 1 uM)
C=CC1=C[C@@H]2[C@@H]3O[C@]4(CC[C@H](O4)C(C)C[C@@H](O)C3=O)CC(O)C3=NCC[C@@]32CC1 (stereo partly drawn) [PA, portimine A] | ~2 nM |  |  | 
C=CC1=C[C@@H]2[C@@H]3OC4(CC[C@H](O4)C(C)C[C@@H](O)C3=O)CC(=O)C3=NCC[C@@]32CC1 (stereo partly drawn) [PB, portimine B] |  | minimal effects | non-toxic; also recorded: non-toxicity | 
CC1C[C@@H](O)C(=O)[C@H]2O[C@]3(CC[C@@H]1O3)CC(O)C1=NCC[C@@]13CCC(c1ccccc1)=C[C@H]23 (stereo partly drawn) [Ph-PA, phenyl-portimine A] |  |  |  | ~2 nM
C=CC1=C[C@@H]2[C@@H]3O[C@]4(CC[C@H](O4)C(C)C[C@@H](O)C3=O)C[C@@H](O)C3=NCC[C@@]32CC1 (stereo partly drawn) [ePA, epi-portimine A] |  | minimal effects | non-toxic; also recorded: non-toxicity | 
